Measured values reported in US20220053758A1, “Microcapsule With Acetamides And Diflufenican” (Monsanto Technology LLC, priority 2020, published 2022).

Experiments:
[1] = test system: GR (glyphosate resistant) palmer amaranth (AMAPA); assay: Greenhouse pre-emergent efficacy, Example 3B; assay type: in vivo, Amaranthus palmeri; settings: rates tested (½× and 1×)
Source text: (§1) ACC, DFF and MRB were used as the commercial products Warrant®, Brodal® and TriCor® DF as described in Example 3A above. Further, also a DFF+MRB pre-mix (200 g/L DFF+400 g/L MRB, suspension concentrate) was used. For GR (glyphosate resistant) palmer amaranth (AMAPA), at 1× rate, all 2- and 3-way treatments provided >95% control. Except for the DFF+MRB pre-mix, these treatments also provided >95% control of GR AMAPA at ½× rate as well. No single active ingredient provided acceptable control of GR AMAPA in this trial.

proso millet (PANMI) = assay: Greenhouse pre-emergent efficacy, Example 3B; assay type: in vivo, Panicum miliaceum; settings: both rates tested (½× and 1×)
Source text: as §1

[2] = test system: glyphosate resistant Canola (Roundup Ready® Canola); assay: Greenhouse post-emergent efficacy in glyphosate resistant Canola, Example 3C; assay type: in vivo; settings: visual rating 14 DAT
Experimental: ACC and DFF were used as the commercial products Warrant® and Brodal® as described in Example 3A above. The seeds of glyphosate resistant Canola (Roundup Ready® Canola) were planted in 3.5-inches (8.89 cm) square plastic pots filled with a potting media of 75% silt loam and 25% Redi-earth (Sun Gro, Bellevue, Wash.). The temperature conditions were 22° C. day and 17° C. night with 14 hours of supplemental light (approximately 600 microeinsteins). The pots are placed in a controlled-environment greenhouse equipped with sub-irrigation. The treatments applications were applied to the plants with a track sprayer generally using a TTI110015 nozzle spray nozzle. The spray nozzle was 16 inches (40.64 cm) above the top of the plants and a spray volume rate of about 140 L/ha was applied. The plants were sprayed when canola was at the V3-V4 growth stage. Visual ratings (% control) were collected at 14 DAT.

[3] = test system: AMAPA (WR-2015-002), resistant against glyphosate, PPO-, HPPD- and ALS-inhibitor herbicides; assay: Greenhouse pre-emergent efficacy on multiple resistant AMAPA, Example 3D; assay type: in vivo, Amaranthus palmeri; settings: 21 DAT
Experimental: (§2) Premixes of present disclosure were compared with ACC and DFF used as the commercial products Warrant® and Brodal® as described in Example 3A above, as well as a corresponding tank-mix of ACC+DFF. Two different pre-mix formulations according to the present disclosure were evaluated for pre-emergent efficacy on the following difficult to control multiple resistant palmer amaranth (Amaranthus palmeri, AMAPA) species: AMAPA (WR-2015-002), resistant against glyphosate, PPO-, HPPD- and ALS-inhibitor herbicides; and AMAPA (WR-2015-008), resistant against glyphosate and metribuzin (PSII-inhibitor), PPO-, HPPD- and ALS-inhibitor herbicides.
(§3) At 21 DAT (days after treatment), visual percent control as well as fresh biomass ratings were recorded for all replications. […] Percent control was then calculated based on the respective untreated control plants.

[4] = test system: AMAPA (WR-2015-008), resistant against glyphosate and metribuzin (PSII-inhibitor), PPO-, HPPD- and ALS-inhibitor herbicides; assay: as above; assay type: in vivo, Amaranthus palmeri; settings: 21 DAT
Experimental: as §2, §3

[5] = 25° C.; cited from earlier work
[6] = group line over the three rates (1×, ½×, ¼×)

Row | SMILES | control of GR AMAPA, in words [1] | control of proso millet (PANMI), in words (proso millet (PANMI)) | Canola Crop Injury Average [2, 6] [%] | Canola Crop Injury Average ([2]; ¼× (ACC 315, DFF 38 g ai/ha)) [%] | Canola Crop Injury Average ([2]; ½× (ACC 630, DFF 75 g ai/ha)) [%] | Injury Average AMAPA (WR-2015-002) ([3]; 1× (ACC 1260, DFF 150 g ai/ha)) [%] | Injury Average AMAPA (WR-2015-002) ([3]; ½× (ACC 630, DFF 75 g ai/ha)) [%] | Injury Average AMAPA (WR-2015-008) ([4]; 1× (ACC 1260, DFF 150 g ai/ha)) [%] | Injury Average AMAPA (WR-2015-008) ([4]; ½× (ACC 630, DFF 75 g ai/ha)) [%] | water solubility [5]
1 | O=C(Nc1ccc(F)cc1F)c1cccnc1Oc1cccc(C(F)(F)F)c1 [DFF, N-(2,4-difluorophenyl)-2-[3-(trifluoromethyl)phenoxy]-3-pyridinecarboxamide] | weak control | weak control | 18.3 | 3.1 | 13.8 | 70.6 | 51.3 | 75.6 | 65.6 | about 50 μg/L
2 | CCOCN(C(=O)CCl)c1c(C)cccc1CC [ACC, 2-chloro-N-(ethoxymethyl)-N-(2-ethyl-6-methylphenyl)acetamide] | weak control | weak control | 6.7 | 0.0 | 2.5 | 81.6 | 61.9 | 73.8 | 60.6 | 
